Test results: ChEMBL document CHEMBL4811281, “Identification of aryl sulfonamides as novel and potent inhibitors of NaV1.5” (Bioorg Med Chem Lett, 2021)
Activity calls are given as the source filed them. The rule behind the calls is not given here.

Tests used:
[1] = target: T1, Sodium channel protein type 5 subunit alpha (Homo sapiens, UniProt Q14524); test: Inhibition of human Nav1.5 by automated voltage clamp electrophysiology
[2] = Intrinsic clearance in human liver microsomes; format: ADME, Microsome; settings: read-out: CLH
[3] = Intrinsic clearance in mouse liver microsomes; format: ADME, Microsome; settings: read-out: CLH
[4] = Inhibition of human Nav1.5 VSD4 R1631A mutant by automated voltage clamp electrophysiology
Homo sapiens [5] = organism: Homo sapiens; test: Selectivity ratio of IC50 for human Nav1.1 to IC50 for human Nav1.5
Homo sapiens [6] = organism: Homo sapiens; test: Selectivity ratio of IC50 for inhibition of human Nav1.5 expressed in HEK293 cells assessed as inhibition of peak current to IC50 for inhibition of human Nav1.5 expressed in HEK293 cells assessed as inhibition of late current; format: cell-based
Homo sapiens [7] = organism: Homo sapiens; test: Selectivity ratio of IC50 for human Nav1.2 to IC50 for human Nav1.5
[8] = target: 5-hydroxytryptamine receptor 3A (Homo sapiens) (UniProt P46098); test: Inhibition of 5HT3A channel (unknown origin) by voltage clamp assay
[9] = target: Transient receptor potential cation channel subfamily V member 1 (Homo sapiens) (UniProt Q8NER1); test: Inhibition of TRPV1 (unknown origin) by voltage clamp assay
Homo sapiens [10] = organism: Homo sapiens; test: Inhibition of Kv4.2/KChIP2.2 (unknown origin) by voltage clamp method
[11] = target: Potassium voltage-gated channel subfamily B member 1 (Homo sapiens) (UniProt Q14721); test: Inhibition of Kv2.1 (unknown origin) by voltage clamp method
[12] = target: Potassium/sodium hyperpolarization-activated cyclic nucleotide-gated channel 4 (Homo sapiens) (UniProt Q9Y3Q4); test: Inhibition of HCN4 (unknown origin) by voltage clamp method
[13] = target: Voltage-dependent T-type calcium channel subunit alpha-1I (Homo sapiens) (UniProt Q9P0X4); test: Inhibition of Cav3.3 (unknown origin) by voltage clamp assay
Homo sapiens [14] = organism: Homo sapiens; test: Selectivity ratio of IC50 for human Nav1.6 to IC50 for human Nav1.5
[15] = target: Voltage-dependent T-type calcium channel subunit alpha-1G (Homo sapiens) (UniProt O43497); test: Inhibition of Cav3.1 (unknown origin) by voltage clamp assay
Homo sapiens [16] = organism: Homo sapiens; test: Inhibition of GABA channel (unknown origin) by voltage clamp assay
[17] = target: Voltage-gated potassium channel KCNC2 (Homo sapiens) (UniProt Q96PR1); test: Inhibition of Kv3.2 (unknown origin) by voltage clamp method
[18] = target: Potassium voltage-gated channel subfamily A member 5 (Homo sapiens) (UniProt P22460); test: Inhibition of Kv1.5 (unknown origin) by voltage clamp method
[19] = target: Voltage-dependent N-type calcium channel subunit alpha-1B (Homo sapiens) (UniProt Q00975); test: Inhibition of Cav2.2 (unknown origin) by voltage clamp assay
iPSC-CM [20] = test: Anti-arrythmic activity in human iPSC-derived cardiomyocytes assessed as AP amplitude at 100 nM in presence of 15 to 30 nM ATX-II by current clamp analysis; format: functional, cell-based
iPSC-CM [21] = test: Anti-arrythmic activity in human iPSC-derived cardiomyocytes assessed as maximum diastolic membrane potential at 100 nM in presence of 15 to 30 nM ATX-II by current clamp analysis; format: functional, cell-based
[22] = target: Potassium/sodium hyperpolarization-activated cyclic nucleotide-gated channel 2 (Homo sapiens) (UniProt Q9UL51); test: Inhibition of HCN2 (unknown origin) by voltage clamp method
Homo sapiens [23] = organism: Homo sapiens; test: Selectivity ratio of IC50 for inhibition of human Nav1.5 VSD4 F1759A mutant to IC50 for inhibition of human Nav1.5 by automated voltage clamp electrophysiology
[24] = target: Sodium channel protein type 5 subunit alpha (Homo sapiens, UniProt Q14524, R814A); test: Inhibition of human Nav1.5 VSD2 R814A mutant by automated voltage clamp electrophysiology
[25] = Inhibition of human Nav1.5 VSD4 R1634A mutant by automated voltage clamp electrophysiology
[26] = Inhibition of human Nav1.5 VSD4 R1628A mutant by automated voltage clamp electrophysiology
[27] = Inhibition of human Nav1.5 VSD4 R1625A mutant by automated voltage clamp electrophysiology
[28] = Inhibition of human Nav1.5 VSD4 R1622A mutant by automated voltage clamp electrophysiology
[29] = Clearance in FVB mouse at 1 mg/kg, iv; format: ADME, organism-based; settings: in vivo
Cytochrome P450 1A2 = Cytochrome P450 1A2 (Homo sapiens, UniProt P05177); test: Inhibition of CYP1A2 (unknown origin); format: ADME
[30] = Inhibition of human Nav1.5 VSD4 F1759A mutant by automated voltage clamp electrophysiology
[31] = Ratio of drug level in brain to plasma in FVB mouse at 10 mg/kg, po measured after 2 hrs; format: ADME, organism-based; settings: read-out: BPR
[32] = Plasma concentration in FVB mouse at 10 mg/kg, po measured after 2 hrs; format: ADME, organism-based
Cytochrome P450 3A4 = Cytochrome P450 3A4 (Homo sapiens, UniProt P08684); test: Inhibition of CYP3A4 (unknown origin); format: ADME
[33] = AUC in FVB mouse at 1 mg/kg, iv; format: ADME, organism-based; design: dose 1 mg/kg; settings: in vivo
[34] = AUC in FVB mouse at 10 mg/kg, po; format: ADME, organism-based; design: dose 10 mg/kg; settings: in vivo
[35] = target: T1, Sodium channel protein type 5 subunit alpha; test: Displacement of [3H]BNZA from Nav1.5 (unknown origin)
[36] = Volume of distribution at steady state in FVB mouse at 1 mg/kg, iv; format: ADME, organism-based; settings: in vivo, read-out: Vdss
[37] = Half life in FVB mouse at 1 mg/kg, iv; format: ADME, organism-based; settings: in vivo
[38] = Cmax in FVB mouse at 10 mg/kg, po; format: ADME, organism-based; design: route oral, dose 10 mg/kg; settings: in vivo
Cytochrome P450 2C9 = Cytochrome P450 2C9 (Homo sapiens, UniProt P11712); test: Inhibition of CYP2C9 (unknown origin); format: ADME
Cytochrome P450 2C19 = Cytochrome P450 2C19 (Homo sapiens, UniProt P33261); test: Inhibition of CYP2C19 (unknown origin); format: ADME
Cytochrome P450 2D6 = Cytochrome P450 2D6 (Homo sapiens, UniProt P10635); test: Inhibition of CYP2D6 (unknown origin); format: ADME
[39] = Drug uptake in FVB mouse brain at 10 mg/kg, po measured after 2 hrs; format: ADME, organism-based; settings: read-out: Drug uptake
[40] = Half life in FVB mouse at 10 mg/kg, po; format: ADME, organism-based; settings: in vivo
[41] = Oral bioavailability in FVB mouse at 10 mg/kg; format: ADME, organism-based; settings: in vivo

T1 sequence (Q14524 whole entry): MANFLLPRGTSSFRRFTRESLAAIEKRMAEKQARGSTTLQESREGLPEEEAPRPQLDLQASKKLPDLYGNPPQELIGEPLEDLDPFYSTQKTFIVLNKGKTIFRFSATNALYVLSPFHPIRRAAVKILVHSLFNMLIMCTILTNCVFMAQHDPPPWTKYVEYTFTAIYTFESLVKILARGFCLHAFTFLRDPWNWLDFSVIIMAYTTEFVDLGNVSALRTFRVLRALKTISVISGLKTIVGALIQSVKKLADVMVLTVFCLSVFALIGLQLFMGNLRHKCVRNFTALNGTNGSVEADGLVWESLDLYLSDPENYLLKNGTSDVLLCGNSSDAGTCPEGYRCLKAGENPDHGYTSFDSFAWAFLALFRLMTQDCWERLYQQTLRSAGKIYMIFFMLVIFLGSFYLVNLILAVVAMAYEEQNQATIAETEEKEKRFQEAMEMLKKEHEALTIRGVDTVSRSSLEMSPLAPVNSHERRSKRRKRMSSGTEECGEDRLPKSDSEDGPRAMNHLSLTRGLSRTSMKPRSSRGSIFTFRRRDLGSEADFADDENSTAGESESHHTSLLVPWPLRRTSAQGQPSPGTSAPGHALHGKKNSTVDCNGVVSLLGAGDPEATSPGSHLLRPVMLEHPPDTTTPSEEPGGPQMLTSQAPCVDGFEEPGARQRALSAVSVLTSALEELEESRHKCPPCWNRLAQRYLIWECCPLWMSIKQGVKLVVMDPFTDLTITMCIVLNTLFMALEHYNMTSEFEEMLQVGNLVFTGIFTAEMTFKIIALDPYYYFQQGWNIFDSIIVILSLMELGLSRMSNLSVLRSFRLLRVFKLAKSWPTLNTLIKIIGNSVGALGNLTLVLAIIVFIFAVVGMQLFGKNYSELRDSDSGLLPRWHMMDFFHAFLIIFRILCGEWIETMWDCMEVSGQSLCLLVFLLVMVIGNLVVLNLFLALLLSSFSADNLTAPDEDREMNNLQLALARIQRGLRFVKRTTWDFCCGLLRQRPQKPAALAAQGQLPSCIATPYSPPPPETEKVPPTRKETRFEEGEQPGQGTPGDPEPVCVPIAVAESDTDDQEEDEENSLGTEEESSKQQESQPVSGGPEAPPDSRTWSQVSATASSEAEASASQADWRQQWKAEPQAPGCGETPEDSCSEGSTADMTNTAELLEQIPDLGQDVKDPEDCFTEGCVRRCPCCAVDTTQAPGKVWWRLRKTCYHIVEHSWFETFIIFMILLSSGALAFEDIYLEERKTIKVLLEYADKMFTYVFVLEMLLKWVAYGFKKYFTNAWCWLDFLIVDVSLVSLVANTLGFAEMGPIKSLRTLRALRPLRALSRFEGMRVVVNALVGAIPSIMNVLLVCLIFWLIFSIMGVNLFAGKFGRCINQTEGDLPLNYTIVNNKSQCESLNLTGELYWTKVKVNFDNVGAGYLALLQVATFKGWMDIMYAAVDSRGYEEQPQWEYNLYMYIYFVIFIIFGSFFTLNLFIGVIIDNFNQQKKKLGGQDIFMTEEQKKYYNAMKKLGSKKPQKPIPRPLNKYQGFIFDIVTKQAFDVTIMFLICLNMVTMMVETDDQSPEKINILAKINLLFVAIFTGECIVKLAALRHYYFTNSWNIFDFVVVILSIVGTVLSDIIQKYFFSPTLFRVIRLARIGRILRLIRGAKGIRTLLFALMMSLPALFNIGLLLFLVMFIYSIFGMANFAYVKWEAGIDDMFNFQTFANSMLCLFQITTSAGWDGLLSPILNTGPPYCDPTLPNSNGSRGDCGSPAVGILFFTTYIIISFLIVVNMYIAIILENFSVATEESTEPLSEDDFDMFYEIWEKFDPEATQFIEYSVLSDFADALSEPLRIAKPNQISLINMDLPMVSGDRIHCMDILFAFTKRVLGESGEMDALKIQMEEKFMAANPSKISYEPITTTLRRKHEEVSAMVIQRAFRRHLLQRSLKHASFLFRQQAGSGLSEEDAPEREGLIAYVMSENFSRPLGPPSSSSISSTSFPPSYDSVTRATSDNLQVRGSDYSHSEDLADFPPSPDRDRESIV
Chain of Transient receptor potential cation channel subfamily V member 1 (Homo sapiens) (Q8NER1 whole entry): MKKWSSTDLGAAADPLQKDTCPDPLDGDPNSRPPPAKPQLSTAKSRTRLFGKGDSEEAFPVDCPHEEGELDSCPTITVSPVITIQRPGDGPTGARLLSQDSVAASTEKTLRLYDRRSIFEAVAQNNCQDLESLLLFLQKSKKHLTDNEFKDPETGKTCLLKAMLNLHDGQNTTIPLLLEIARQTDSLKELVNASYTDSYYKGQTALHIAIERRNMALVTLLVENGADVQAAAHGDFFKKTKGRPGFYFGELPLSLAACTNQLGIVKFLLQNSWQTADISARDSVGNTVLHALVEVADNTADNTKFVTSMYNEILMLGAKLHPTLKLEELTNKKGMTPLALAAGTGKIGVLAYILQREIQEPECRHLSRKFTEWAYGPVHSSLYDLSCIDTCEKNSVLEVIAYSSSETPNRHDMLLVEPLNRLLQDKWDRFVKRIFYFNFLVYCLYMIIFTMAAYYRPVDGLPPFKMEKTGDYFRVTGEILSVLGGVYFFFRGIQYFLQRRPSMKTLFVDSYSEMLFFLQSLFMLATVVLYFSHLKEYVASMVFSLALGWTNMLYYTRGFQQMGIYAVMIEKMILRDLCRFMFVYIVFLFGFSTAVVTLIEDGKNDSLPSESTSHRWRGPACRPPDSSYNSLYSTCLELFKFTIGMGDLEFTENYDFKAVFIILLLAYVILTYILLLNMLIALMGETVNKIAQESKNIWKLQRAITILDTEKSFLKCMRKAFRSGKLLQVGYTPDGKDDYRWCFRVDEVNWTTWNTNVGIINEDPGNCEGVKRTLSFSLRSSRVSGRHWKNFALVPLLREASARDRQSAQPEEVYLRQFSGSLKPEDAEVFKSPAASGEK
Chain of Cytochrome P450 2D6 (P10635 whole entry): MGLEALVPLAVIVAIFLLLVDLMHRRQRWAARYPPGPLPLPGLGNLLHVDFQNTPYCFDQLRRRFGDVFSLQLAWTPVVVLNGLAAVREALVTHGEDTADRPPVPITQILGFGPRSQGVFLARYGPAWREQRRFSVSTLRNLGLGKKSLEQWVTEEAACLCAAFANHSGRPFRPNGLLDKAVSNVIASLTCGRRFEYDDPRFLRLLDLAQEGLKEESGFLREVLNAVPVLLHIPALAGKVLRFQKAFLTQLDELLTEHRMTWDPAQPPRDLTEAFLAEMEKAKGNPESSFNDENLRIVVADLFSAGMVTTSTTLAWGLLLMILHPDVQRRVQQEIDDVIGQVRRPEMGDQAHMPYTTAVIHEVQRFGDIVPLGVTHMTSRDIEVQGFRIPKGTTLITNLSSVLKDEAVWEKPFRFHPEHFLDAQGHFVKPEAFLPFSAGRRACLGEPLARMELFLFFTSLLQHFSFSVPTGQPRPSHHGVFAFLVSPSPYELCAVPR
Chain of Cytochrome P450 2C19 (P33261 whole entry): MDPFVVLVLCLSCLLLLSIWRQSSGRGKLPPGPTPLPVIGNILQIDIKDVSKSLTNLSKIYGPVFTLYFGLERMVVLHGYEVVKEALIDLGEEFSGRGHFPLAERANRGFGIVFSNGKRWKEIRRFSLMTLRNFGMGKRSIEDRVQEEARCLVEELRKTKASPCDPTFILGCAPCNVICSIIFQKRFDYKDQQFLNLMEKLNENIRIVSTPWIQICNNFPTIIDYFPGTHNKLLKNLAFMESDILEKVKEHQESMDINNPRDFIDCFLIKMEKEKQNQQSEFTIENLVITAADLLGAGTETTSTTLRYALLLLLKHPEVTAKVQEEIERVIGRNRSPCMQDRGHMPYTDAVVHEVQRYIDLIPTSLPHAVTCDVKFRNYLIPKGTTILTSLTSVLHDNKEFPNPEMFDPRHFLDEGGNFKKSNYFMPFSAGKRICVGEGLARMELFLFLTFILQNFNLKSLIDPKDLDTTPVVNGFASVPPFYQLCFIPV
Chain of Potassium voltage-gated channel subfamily B member 1 (Homo sapiens) (Q14721 whole entry): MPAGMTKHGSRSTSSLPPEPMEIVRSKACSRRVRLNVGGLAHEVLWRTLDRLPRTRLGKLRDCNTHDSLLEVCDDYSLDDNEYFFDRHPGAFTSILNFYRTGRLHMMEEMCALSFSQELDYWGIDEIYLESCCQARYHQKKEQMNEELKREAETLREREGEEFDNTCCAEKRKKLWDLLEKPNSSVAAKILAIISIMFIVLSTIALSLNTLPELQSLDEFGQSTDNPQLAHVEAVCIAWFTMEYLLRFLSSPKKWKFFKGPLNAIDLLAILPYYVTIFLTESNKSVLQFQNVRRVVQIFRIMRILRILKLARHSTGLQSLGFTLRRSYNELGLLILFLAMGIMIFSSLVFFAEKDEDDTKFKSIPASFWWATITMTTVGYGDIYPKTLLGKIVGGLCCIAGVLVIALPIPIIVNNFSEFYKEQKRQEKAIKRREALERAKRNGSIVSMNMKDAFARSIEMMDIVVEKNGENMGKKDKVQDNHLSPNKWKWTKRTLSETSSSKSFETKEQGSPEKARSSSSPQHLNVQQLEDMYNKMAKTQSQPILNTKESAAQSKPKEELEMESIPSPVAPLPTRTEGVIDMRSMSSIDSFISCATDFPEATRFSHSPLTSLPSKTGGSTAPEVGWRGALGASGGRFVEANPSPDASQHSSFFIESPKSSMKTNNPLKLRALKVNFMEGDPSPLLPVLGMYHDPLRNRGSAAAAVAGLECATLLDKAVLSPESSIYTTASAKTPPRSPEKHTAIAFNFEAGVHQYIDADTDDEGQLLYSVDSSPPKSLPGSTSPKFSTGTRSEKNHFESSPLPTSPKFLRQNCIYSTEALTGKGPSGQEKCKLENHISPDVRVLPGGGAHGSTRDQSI

Row | Compound | IC50 [1] [nM] | CLint scaled [2] [mL/min/kg] | CLint scaled [3] [mL/min/kg] | other results
1 | O=S(=O)(Nc1ncns1)c1cc(F)c(O[C@H]2CCN(CC(F)(F)F)C[C@@H]2c2ccccc2)cc1F (racemic) | 7830 |  |  | 
2 | O=S(=O)(Nc1cccc(F)n1)c1cc(F)c(O[C@H]2CCN(CC(F)(F)F)C[C@@H]2c2ccc(F)c(F)c2)cc1F (racemic) | 260 | 7.5 | 49 | 
3 | O=S(=O)(Nc1cccc(F)n1)c1cc(F)c(O[C@H]2CCN(CC(F)(F)F)C[C@@H]2c2ccc(F)c(F)c2)c(F)c1 (racemic) | 65 | 15 | 65 | 
4 | O=S(=O)(Nc1cccc(F)n1)c1cnc(O[C@H]2CCN(CC(F)(F)F)C[C@@H]2c2ccc(F)c(F)c2)c(F)c1 (racemic) | 1550 | 8.4 | 63 | 
5 | O=S(=O)(Nc1cccc(F)n1)c1cc(F)c(O[C@H]2CCN(CC(F)(F)F)C[C@@H]2c2ccc(F)c(F)c2)c(F)c1 (stereo in doubt; (+)-6) | 170 |  |  | 
6 | O=S(=O)(Nc1cscn1)c1cc(F)c(O[C@H]2CCN(CC(F)(F)F)C[C@@H]2c2ccccc2)cc1F (racemic) | 1180 |  |  | IC50 [4]: 1170 nM
7 | O=S(=O)(Nc1cccc(F)n1)c1cc(F)c(O[C@H]2CCN(CC(F)(F)F)C[C@@H]2c2ccc(F)c(F)c2)c(F)c1 (stereo in doubt; (-)-6) |  |  |  | Ratio IC50 (Homo sapiens [5]): 16; Ratio IC50 (Homo sapiens [6]): 1.1; Ratio IC50 (Homo sapiens [7]): 7; inhibition [8]: inactive; inhibition [9]: inactive; inhibition (Homo sapiens [10]): inactive; inhibition [11]: inactive; inhibition [12]: inactive; inhibition [13]: inactive; Ratio IC50 (Homo sapiens [14]): 6; inhibition [15]: inactive; inhibition (Homo sapiens [16]): inactive; inhibition [17]: inactive; inhibition [18]: inactive; inhibition [19]: inactive; Activity (iPSC-CM [20]): inactive; Activity (iPSC-CM [21]): inactive; inhibition [22]: inactive
8 | O=S(=O)(Nc1cccc(F)n1)c1cc(F)c(OC2CCN(CC(F)(F)F)CC2c2ccc(F)c(F)c2)cc1F (single isomer, unassigned; (-)) [listing 1 of 2 here] |  |  |  | Ratio IC50 (Homo sapiens [23]): > 40
9 | O=S(=O)(Nc1cccc(F)n1)c1cc(F)c(O[C@H]2CCN(CC(F)(F)F)C[C@@H]2c2cccc(F)c2)cc1F (racemic) | 460 | 13 | 53 | 
10 | O=S(=O)(Nc1ncccc1F)c1cc(F)c(O[C@H]2CCN(CC(F)(F)F)C[C@@H]2c2ccccc2)cc1F (racemic) | 5040 |  |  | 
11 | O=S(=O)(Nc1cccnn1)c1cc(F)c(O[C@H]2CCN(CC(F)(F)F)C[C@@H]2c2ccccc2)cc1F (racemic) | 25500 |  |  | 
12 | O=S(=O)(Nc1cccc(F)n1)c1cc(F)c(O[C@H]2CCN(CC(F)(F)F)C[C@@H]2c2ccc(F)cc2F)cc1F (racemic) | 470 | 13 | 49 | 
13 | O=S(=O)(Nc1ncccn1)c1cc(F)c(O[C@H]2CCN(CC(F)(F)F)C[C@@H]2c2ccccc2)cc1F (racemic) | 7140 |  |  | 
14 | O=S(=O)(Nc1ccccn1)c1cc(F)c(O[C@H]2CCN(CC(F)(F)F)C[C@@H]2c2ccccc2)cc1F (racemic) | 4320 |  |  | 
15 | O=S(=O)(Nc1cc(F)ccn1)c1cc(F)c(O[C@H]2CCN(CC(F)(F)F)C[C@@H]2c2ccccc2)cc1F (racemic) | 1290 |  |  | 
16 | O=S(=O)(Nc1cccc(F)n1)c1cc(F)c(O[C@H]2CCN(CC(F)(F)F)C[C@@H]2c2ccccc2F)cc1F (racemic) | 680 | 17 | 71 | 
17 | O=S(=O)(Nc1cscn1)c1cc(F)c(O[C@H]2CCN(CC(F)(F)F)C[C@@H]2c2ccc(F)c(F)c2)cc1F (racemic) | 750 | 14 | 70 | 
18 | O=S(=O)(Nc1cccc(F)n1)c1cc(F)c(O[C@H]2CCN(CC(F)(F)F)C[C@@H]2c2ccc(F)c(F)c2)c(F)c1F (racemic) | 31 | 14 | 65 | 
19 | O=S(=O)(Nc1cccc(F)n1)c1cc(F)c(O[C@H]2CCN(CC(F)(F)F)C[C@@H]2c2ccccc2)cc1F (racemic) | 700 | 16 | 70 | IC50 [4]: 570 nM; IC50 [24]: 410 nM; IC50 [25]: 1210 nM; IC50 [26]: 820 nM; IC50 [27]: 810 nM; IC50 [28]: 1290 nM
20 | O=S(=O)(Nc1cccc(F)n1)c1cc(F)c(OC2CCN(CC(F)(F)F)CC2c2ccc(F)c(F)c2)cc1F (single isomer, unassigned; (-)) [listing 2 of 2 here] | 240 | 9 | 50 | clearance [29]: 1.8 mL/min/kg; inhibition (INH) (Cytochrome P450 1A2): Not Active; IC50 [30]: > 10000 nM; Kp at 2 h [31]: 0.28; concentration at 2 h [32]: 9.37 µM; inhibition (INH) (Cytochrome P450 3A4): Not Active; AUC [33]: 16 µM·h; AUC [34]: 72 µM·h; Ki [35]: 2020 nM; Vd [36]: 0.6 L/kg; half-life [37]: 4.3 h; Cmax [38]: 5.2 µM; IC50 (Cytochrome P450 2C9): 6900 nM; inhibition (INH) (Cytochrome P450 2C19): Not Active; inhibition (INH) (Cytochrome P450 2D6): Not Active; concentration at 2 h [39]: 2.62 µM; half-life [40]: 4.1 h; bioavailability [41]: 45%
21 | CS(=O)(=O)c1cccc([C@H]2CN(CC(F)(F)F)CC[C@@H]2Oc2cc(F)c(S(=O)(=O)Nc3cccc(F)n3)cc2F)c1 (racemic) | > 30000 |  |  | 
22 | O=S(=O)(Nc1cccc(F)n1)c1cc(F)c(O[C@H]2CCN(CC(F)(F)F)C[C@@H]2c2ccc(F)cc2)cc1F (racemic) | 610 | 11 | 62 | 
23 | N#Cc1cccc([C@H]2CN(CC(F)(F)F)CC[C@@H]2Oc2cc(F)c(S(=O)(=O)Nc3cccc(F)n3)cc2F)c1 (racemic) | 4580 |  |  | 
24 | O=S(=O)(Nc1ncc(F)s1)c1cc(F)c(O[C@H]2CCN(CC(F)(F)F)C[C@@H]2c2ccccc2)cc1F (racemic) | 4650 |  |  | 
25 | O=S(=O)(Nc1cccc(F)n1)c1cc(F)c(OC2CCN(CC(F)(F)F)CC2c2ccc(F)c(F)c2)cc1F (single isomer, unassigned; (+)) | 430 |  |  | 
26 | O=S(=O)(Nc1ccncn1)c1cc(F)c(O[C@H]2CCN(CC(F)(F)F)C[C@@H]2c2ccccc2)cc1F (racemic) | > 30000 |  |  | 
27 | O=S(=O)(Nc1cccc(C(F)(F)F)n1)c1cc(F)c(O[C@H]2CCN(CC(F)(F)F)C[C@@H]2c2ccccc2)cc1F (racemic) | 6330 |  |  | 
28 | O=S(=O)(Nc1nncs1)c1cc(F)c(O[C@H]2CCN(CC(F)(F)F)C[C@@H]2c2ccccc2)cc1F (racemic) | 25100 |  |  | 
29 | O=S(=O)(Nc1ccc(F)cn1)c1cc(F)c(O[C@H]2CCN(CC(F)(F)F)C[C@@H]2c2ccccc2)cc1F (racemic) | 13200 |  |  | 
30 | O=S(=O)(Nc1cccc(Cl)n1)c1cc(F)c(O[C@H]2CCN(CC(F)(F)F)C[C@@H]2c2ccccc2)cc1F (racemic) | 1100 |  |  | 
